Data reported in patent US11523986B2, “Intranasally administered antihistamines and uses thereof” (priority 2019, dated 2022).

Legend:
in vitro = conditions: human, DPBS pH 7.4, 120 min, 37° C., diphenhydramine 100 μM, atenolol 100 μM, caffeine 50 μM co-dosed
Protocol: (§1) EpiAirway™ tissues, plated in 24-well plates, and accompanying culture medium and assay buffer solutions, were purchased from MatTek Corporation (Ashland, Mass.). According to the EpiAirway™ AIR-100 Use Protocol provided by MatTek, the tissues were returned to culture immediately upon receipt. In a tissue culture hood, using sterile technique, 1.0 mL of cold medium (AIR-100-ASY) was dispensed into each well of the 6-well plate (n=3) and one tissue insert was transferred to each of the wells. The apical surface of the tissue was exposed to the air (no medium was added to the insert). The tissues were equilibrated overnight at 37° C. in a 5% CO2 incubator. The culture medium was then replaced with fresh, pre-warmed medium until use.
(§2) The unidirectional permeation experiment was conducted according to protocol 18APCIP2 and relevant SOPs of Absorption Systems. Prior to the permeability assay, the culture medium in the plate was aspirated; and ˜1 mL of Dulbecco's phosphate-buffered saline (DPBS) was added to the well to remove any remaining residue of culture medium from the underside of the insert. The tissues were transferred to a 24-well plate with DPBS (750 μL) in each well as receiver, and dosing solution (400 μL) was added to each insert. A 100 μL aliquot was immediately removed as the 0-minute donor sample. Receiver samples (200 μL) were collected at 30, 60, and 120 minutes, replaced with an equal volume of fresh pre-warmed blank buffer at 30 and 60 minutes. The donor side was sampled (100 μL) at 0 and 120 minutes. The assay plate was placed in a humidified CO2 incubator at 37° C. during the assay period.
(§3) After 120 minutes, the tissues were rinsed with DPBS and gently dried with tissue wipes after aspiration of the assay buffer. The insert membranes with tissues attached were carefully removed from the insert apparatus, placed in a tared centrifuge tube, and weighed.
(§4) The apparent permeability coefficient (Papp) and recovery were calculated as follows: Papp=(dCr/dt)×Vr/(A×Cini) (1) Recovery (%)=[((Cr,final×Vr)+(Cd,final×Vd))/(Cini×Vd)]×100 (2) Recovery (%)=[((Cr,final×Vr)+(Cd,final×Vd)+(Tissue Accumulation))/(Cini×Vd)]×100 (3)
(§5) where, • dCr/dt is the slope of cumulative receiver concentration vs. time in μM s^−1; • Vr is the volume of the receiver compartment; • Vd is the volume of the donor compartment; • A is the diffusional area of the membrane; • Cini is the donor concentration at 0 minutes in μM; • CD, final is the donor concentration at 120 minutes in μM; • Cr, final is the receiver concentration at 120 minutes in μM.
(§6) With DPBS, pH 7.4 used on both the donor and receiver sides, permeability was initiated with addition of 0.4 mL of dosing solution into the inserts and of 0.75 mL of blank buffer into the wells of the assay plate. The assay was performed for 120 minutes in a humidified incubator at 37° C.

rhinovirus colds = conditions: intranasal, phosphate buffer vehicle, patients; Gaffney et al. 1987; cited from earlier work
EpiAirway tissues = EpiAirway tissues after 120 min, 100 μM
Protocol: as §1, §2, §3, §4, §5, §6

| Structure (SMILES) | Papp A→B at 120 min (in vitro; pH 7.4, Papp (10^−6 cm/s) Average ± SD, apical dosing, average) [×10⁻⁶ cm/s] | Papp A→B at 120 min (in vitro; pH 7.4, Papp (10^−6 cm/s) R1, apical dosing, replicate R1) [×10⁻⁶ cm/s] | Papp A→B at 120 min (in vitro; pH 7.4, Papp (10^−6 cm/s) R2, apical dosing, replicate R2) [×10⁻⁶ cm/s] | Papp A→B at 120 min (in vitro; pH 7.4, Papp (10^−6 cm/s) R3, apical dosing, replicate R3) [×10⁻⁶ cm/s] | therapeutic effect in reducing signs and symptoms of rhinovirus colds (rhinovirus colds) | Tissue Accumulation (nmol/mg) Average ± SD (EpiAirway tissues; average) [nmol/mg] | Tissue Accumulation (nmol/mg) R1 (EpiAirway tissues; replicate R1) [nmol/mg] | Tissue Accumulation (nmol/mg) R3 (EpiAirway tissues; replicate R3) [nmol/mg] |
| --- | --- | --- | --- | --- | --- | --- | --- | --- |
| Cn1c(=O)c2c(ncn2C)n(C)c1=O [Caffeine, caffeine] | 29.1 | 30.9 | 28.2 | 28.2 | – | – | – | – |
| CN(C)CCOC(c1ccccc1)c1ccccc1 [Diphenhydramine, diphenhydramine] | – | – | – | – | no therapeutic effect | 0.212 ± 0.0222 | 0.188 | 0.218 |
